Test results: paper PMC11336141
Ends that are not written are not given here.

Columns and labels:
human SSTR2 (Gi1) = target: T1, human SSTR2 (Gi1) (Homo sapiens, UniProt P30874); experiment: G protein activation (BRET dissociation) assay, Gi1 at hSSTR2; assay type: cell-based;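 also: percent of the maximal response to the reference somatostatin agonist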
T1 construct: host or cells: HEK293T cells
Experimental: (§1) HEK293T cells were seeded onto 6-well plates at a density of 750,000 cells/well. […] 16 to 24 hours post-transfection, HEK293T cells were seeded onto white 96 well plate (PerkinElmer) coated with poly-L-lysine (PLL) at a density of 40,000 cells/well and were allowed to grow overnight. On the day of assay, cells were washed once with phosphate-based saline (PBS) and 80 µL of assay buffer which composed of PBS with 0.5 mM MgCl2 and 0.1% glucose, pH 7.4, were added onto each well. 10 µL of Nluc luciferase substrate furimazine (Promega) were added onto each well and incubated for 3 minutes.
(§2) The net BRET ratio was determined by subtracting the BRET ratio of drugs with the BRET ratio of vehicle control. Net BRET ratio over time was then plotted using GraphPad Prism (v.9.4.1), and the area-under-curve of net BRET ratio over time course for each ligand concentration tested were then determined and plotted against log(concentration) of drugs tested. […] Concentration response curves were fitted with a 4-parameter logistic Eq. (1) using GraphPad Prism (v.9.4.1):1 Y=Emin+(Emax−Emin)/1+10^logEC50−X×Hillslope

human SSTR3 = target: T2, human SSTR3 (Homo sapiens, UniProt P32745); experiment: PRESTO-Tango β-arrestin recruitment assay, hSSTR3; assay type: cell-based
T2 construct: Tango cassette (PRESTO-Tango template of Kroeze et al. 2015); Bryan Roth (Addgene) Addgene kit # 1000000068; host or cells: HTLA cells
T2 sequence (P32745 whole entry): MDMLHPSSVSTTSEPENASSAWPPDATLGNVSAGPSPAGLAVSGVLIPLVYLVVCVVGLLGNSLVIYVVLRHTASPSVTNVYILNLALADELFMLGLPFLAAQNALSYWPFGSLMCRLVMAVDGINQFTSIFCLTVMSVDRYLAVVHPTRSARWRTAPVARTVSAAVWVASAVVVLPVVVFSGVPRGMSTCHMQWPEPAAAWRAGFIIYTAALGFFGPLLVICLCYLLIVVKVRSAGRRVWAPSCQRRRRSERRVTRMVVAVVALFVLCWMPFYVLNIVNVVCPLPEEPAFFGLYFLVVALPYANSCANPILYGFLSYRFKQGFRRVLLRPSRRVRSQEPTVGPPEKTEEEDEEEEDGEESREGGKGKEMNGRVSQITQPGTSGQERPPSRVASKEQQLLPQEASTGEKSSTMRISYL
Description: HTLA cells were given by Prof.
The assay was done as described in ref. [12].

human SSTR2 (GoA) = human SSTR2 (GoA) (Homo sapiens, UniProt P30874); experiment: G protein activation (BRET dissociation) assay, GoA at hSSTR2; conditions: read-out: Emax ± S.E.M.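 Also: percent of the maximal response to the reference somatostatin agonist.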
human SSTR2 (GoA), sequence (P30874 whole entry): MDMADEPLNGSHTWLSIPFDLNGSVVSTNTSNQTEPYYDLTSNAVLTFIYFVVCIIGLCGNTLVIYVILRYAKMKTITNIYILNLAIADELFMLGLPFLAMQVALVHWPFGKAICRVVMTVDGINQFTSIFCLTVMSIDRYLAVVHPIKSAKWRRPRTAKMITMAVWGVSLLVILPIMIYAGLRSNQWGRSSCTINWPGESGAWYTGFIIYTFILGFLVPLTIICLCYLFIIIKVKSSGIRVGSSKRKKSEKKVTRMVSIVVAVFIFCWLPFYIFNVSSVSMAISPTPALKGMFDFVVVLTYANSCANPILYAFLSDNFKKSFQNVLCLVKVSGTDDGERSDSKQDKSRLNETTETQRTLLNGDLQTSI
Experimental: as §1, §2

human SSTR2 (Gi3) = target: T3, human SSTR2 (Gi3) (Homo sapiens, UniProt P30874); experiment: G protein activation (BRET dissociation) assay, Gi3 at hSSTR2; assay type: cell-based;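 also: percent of the maximal response to the reference somatostatin agonist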
T3 construct: host or cells: HEK293T cells
T3 sequence (P30874 whole entry): as above
Experimental: as §1, §2

human SSTR2 = human SSTR2 (Homo sapiens, UniProt P30874); experiment: PRESTO-Tango β-arrestin recruitment assay, hSSTR2; conditions: read-out: Emax ± S.E.M., Table S1; % of maximal response relative to SS-14
human SSTR2, sequence (P30874 whole entry): as above
Experimental: HTLA cells were given by Prof. Bryan Roth (University of North Carolina, Chapel Hill, US) and were maintained in Dulbecco’s modified Eagle’s medium (DMEM) supplemented with 10% Fetal Bovine Serum (FBS) (Biowest) and 100 U/mL penicillin and 100 µg/mL streptomycin at 37 °C in a humidified incubator supplemented with 5% CO2. Constant selective pressure for tTA-dependent luciferase reporter and a β-arrestin 2 tobacco etch virus protease fusion gene were maintained with the addition of 100 µg/mL hygromycin B and 2 µg/ml puromycin (Tango growth medium).
Briefly, HTLA cells (1 million cells/well) were seeded in 6-well plates in Tango growth medium, and incubated overnight. On day 2, medium was changed to Tango growth medium without hygromycin B and puromycin. Cells were then transfected using Polyfect (Qiagen) according to manufacturer’s protocol. On day 3, 15,000 cells in 40 µL DMEM supplemented with 1% dialyzed FBS (Tango assay medium) per well were seeded in poly-D-lysine-coated white clear-bottom 384 well plates (Corning) and incubated overnight. On day 4, the Tango assay medium was changed and 10 µL of each of the peptide was added at 5x final concentration. The peptides were resuspended in HBSS with 20 mM HEPES, 1 mM of CaCl2, 1 mM of MgCl2, pH adjusted to 7.4 with 1 M NaOH (Tango assay buffer), which was supplemented with 0.1% BSA (Tango ligand buffer). After overnight incubation, on day 5, the medium and the compounds were removed from the cells and 20 µL of 1:20 dilution of BrightGlo (Promega) in Tango assay buffer supplemented with 0.01% pluronic F68 was added to the cells. Plates were incubated for 20 minutes in the dark at room temperature. Luminescence was measured on a Molecular Devices SpectraMax iD5 (Molecular Devices) with each well integrated for 1 second.

human SSTR2 (Gi2) = target: T4, human SSTR2 (Gi2) (Homo sapiens, UniProt P30874); experiment: G protein activation (BRET dissociation) assay, Gi2 at hSSTR2; assay type: cell-based;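 also: percent of the maximal response to the reference somatostatin agonist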
T4 construct: host or cells: HEK293T cells
T4 sequence (P30874 whole entry): as above
Experimental: as §1, §2

human SSTR2 (GoB) = target: T5, human SSTR2 (GoB) (Homo sapiens, UniProt P30874); experiment: G protein activation (BRET dissociation) assay, GoB at hSSTR2; assay type: cell-based;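 also: percent of the maximal response to the reference somatostatin agonist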
T5 construct: host or cells: HEK293T cells
T5 sequence (P30874 whole entry): as above
Experimental: as §1, §2

perfused rat pancreas = experiment: Rat pancreas perfusion, glucagon output; design: species or system rat (Wistar); conditions: bolus 10 mM L-arginine at end of experiment
Experimental: Non-fasted rats were anesthetized by a subcutaneous injection of a balanced mix of hypnorm and midazolam (0.3 mL/100 g body weight). Rats were placed on a heated operating table (37 °C) and the abdomen were opened. Blood vessels were tied off before removing the large and small intestines, the stomach, and the spleen. Then, the kidneys were ligated. […] The perfusion buffer was a modified Krebs-Ringer bicarbonate buffer with 5% (w/v) dextran T-70 (Pharmacosmos, Holbaek, Denmark), 0.1% (w/v) BSA (fraction V), 3.5 mM glucose and 3 mM vamin (Fresenius Kabi, Copenhagen, Denmark), pH adjusted to 7.4. […] Once perfusion of the pancreas was established, a catheter was inserted in the vena portae to collect the venous effluent and the rat was sacrificed by perforation of the diaphragm. After a 30-minute equilibration period, samples were collected every minute for the duration of the protocol. […] 10 mM L-Arginine was used as a positive control. Collected samples were immediately transferred on ice and stored at −20 °C until hormone analysis. Glucagon, insulin, and somatostatin concentrations in venous effluents were quantified by use of validated in-house radioimmunoassays (RIA) as previously described[36] (see below). Statistical analysis were performed where appropriate using one-way analysis of variance (ANOVA) with Dunnett’s post-test. Statistical significance was taken as p < 0.05.
Glucagon concentration in perfusion samples were measured by a validated in-house RIAs using the 4305 antibody, which reacts with the C-terminal epitope of glucagon[36] and no other cleavage products of pro-glucagon. Insulin concentrations were measured with the 2006 antibody, which measures all isoforms of rat insulin. […] Assay sensitivity was <1 pmol/L ( < 5 pmol/L for insulin detection), allowing reliable measurements of increments of at least 25 fmol/min.
Data analysis were performed in GraphPad Prism (v.9.4.1). Statistical analysis were performed using two-way repeated measure analysis of variance (ANOVA) with Šidák test for isolated islets glucagon secretion and one-way repeated measure ANOVA with Dunnett's test for rat pancreas perfusion experiments. Statistical significance was taken as p < 0.05.

[1] = system: mock (pcDNA) transfected HEK293T cells; experiment: GoA dissociation in mock (pcDNA) transfected HEK293T cells; assay type: cell-based; conditions: Fig. S6B
Experimental: The following protocol was adopted from Masuho et al., 2015[33]. HEK293T cells were seeded onto 6-well plates at a density of 750,000 cells/well. […] 16 to 24 hours post-transfection, HEK293T cells were seeded onto white 96 well plate (PerkinElmer) coated with poly-L-lysine (PLL) at a density of 40,000 cells/well and were allowed to grow overnight. On the day of assay, cells were washed once with phosphate-based saline (PBS) and 80 µL of assay buffer which composed of PBS with 0.5 mM MgCl2 and 0.1% glucose, pH 7.4, were added onto each well. 10 µL of Nluc luciferase substrate furimazine (Promega) were added onto each well and incubated for 3 minutes.
Crude C. geographus venom was subjected to reversed-phase high performance liquid chromatography (RP-HPLC). Pools consisting of 5 adjacent fractions were then tested for their ability to induce GoA dissociation at the hSSTR2. […] Error bars represent means ± S.E.M. of only one technical experiment in duplicate.
Error bars represent means ± S.E.M. of only one technical experiment in duplicate.

[2] = target: zebrafish sstr2b, Tango construct (zebrafish (Danio rerio))
[3] = target: zebrafish sstr2a, Tango construct (zebrafish (Danio rerio)) (UniProt E7FDL0)
plasma glucose = conditions: compared with GLP-1; cited from earlier work
Description: Another example of a doppelganger peptide with drug-like properties that targets glucose homeostasis is exendin-4, a glucagon-like peptide-1 (GLP-1) peptide derived from the salivary gland of the Gila monster, Heloderma suspectum. […] Following successful clinical trials, exendin-4 (exenatide) entered the market in 2005 as a first-in-class incretin-mimetic for the treatment of type 2 diabetes (T2D). Since then, several other GLP-1 analogs have been devel ...

T1 sequence (P30874 whole entry): as above

## C[C@@H](O)[C@@H]1NC(=O)[C@H](CCCCN)NC(=O)[C@@H](Cc2c[nH]c3ccccc23)NC(=O)[C@H](Cc2ccccc2)NC(=O)[C@@H](NC(=O)[C@H](N)Cc2ccccc2)CSSC[C@@H](C(=O)N[C@H](CO)[C@@H](C)O)NC1=O [Octreotide, octreotide, reference compound]
Human SSTR2 (Gi1)
  Emax: 84.2 ± 4.44%
Human SSTR3
  Emax: 108 ± 13.4%
Human SSTR2 (GoA)
  Emax: 96.2 ± 4.77%
Human SSTR2 (Gi3)
  Emax: 77.5 ± 3.67%
Human SSTR2
  Emax: 94 ± 1.4%
Human SSTR2 (Gi2)
  Emax: 64 ± 2.97%
Human SSTR2 (GoB)
  Emax: 101 ± 2.64%

## N=C(N)NCCC[C@H](N)C(=O)O [L-arginine, reference compound]
Perfused rat pancreas
  effect on glucagon levels (positive control): revert glucagon levels

## SST-14 (AGCKNFFWKTFTSC; not fully specified (bridges); ends and bridges not checked; UniProt P61278 103-116, looked up)
[1]; at pEC20, data row 1
  pcDNA/GoA response, Mean: 0.005611
[1]; at pEC20, data row 2
  pcDNA/GoA response, Mean: 0.02323
[1]; at pEC20, data row 3
  pcDNA/GoA response, Mean: 0.002971
[1]; at pEC50, data row 1
  pcDNA/GoA response, Mean: 0
[1]; at pEC50, data row 2
  pcDNA/GoA response, Mean: 0.0008161
[1]; at pEC50, data row 3
  pcDNA/GoA response, Mean: 0

## Somatostatin-14 (from UniProt P61278 103-116) (peptide)
[2]
  EC50, PRESTO-Tango β-arrestin recruitment assay: 0.132 µM
[3]
  EC50, PRESTO-Tango β-arrestin recruitment assay: 0.0286 µM

## exendin-4
Plasma glucose
  in vivo half-life in words: significantly longer in vivo half-life than GLP-1
  potency in lowering plasma glucose in words: much greater potency in lowering plasma glucose
